Results from patent publication US11891625B2, “Methods and compositions relating to hematopoietic stem cell expansion, enrichment, and maintenance” (CHILDREN'S MEDICAL CENTER CORPORATION, priority 2015, dated 2024).

Key:
ZsGr+ murine HSCs = test: 4.5 day ex vivo culture of 20 Fgd5 ZsGr+ HSCs (frequency and number of ZsGr+ cells); assay type: cell-based; settings: 4.5 days ex vivo culture
Source text: FIG. 10A depicts bright-field and ZsGr images of 20 Fgd5⋅ZsGr+ HSCs cultured for 4.5 days ex vivo in the presence of LSD1 inhibitor IV (LS), Tgfbeta inhibitor RepSox (RS), and the combination of both (C2). […] FIG. 10C depicts the number of ZsGr+ and ZsGr− cells after 4.5 day cultures.
(§1) An optimal combination of compounds that can be used to expand, enrich, and maintain the hematopoietic stem cell functional potential of hematopoietic stem cells includes a histone demethylase inhibitor and an inhibitor of the TGFβ receptor Alk5. […] Images taken at 4× magnification. […] FIGS. 9A-9B show the expansion of phenotypic HSCs for 14 days ex vivo. 20 murine HSCs (LSK34-Flk2-150+ZsGr+) were cultured in the presence of DMSO, LSD1 inhibitor IV (LS), Tgfbeta inhibitor RepSox (RS), and the combination of both (C2) for 14 days. This method supports maintenance and expansion of ZsGr+ HSCs. […] FIG. 9B: Number of ZsGr+ HSCs in each condition after 14 days of ex vivo culture. […] A) Bright-field and ZsGr images of 20 HSCs cultured for 4.5 days ex vivo in the presence of LSD1 inhibitor IV (LS), Tgfbeta inhibitor RepSox (RS), and the combination of both (C2). FIG. 10B: Frequency of ZsGr+ cells remaining following 4.5 days of ex vivo culture. FIG. 10C: Number of ZsGr+ (Green) and ZsGr− (Black) cells within 4.5 day cultures (See also FIGS. 11A-13F and 28A-32B).

human cord blood HSCs = test: In vitro colony forming assay of human cord blood HSCs after 14 days of ex vivo culture; assay type: cell-based; settings: 14 day cord blood HSC cultures
Experimental: FIG. 30A depicts colony counts and composition adjusted to represent the entire well following 14 days of ex vivo culture (Note: only a fraction of the well was added to methocult for colony formation). FIG. 30B depicts the frequency of myeloid colony types from 14 day cord blood HSC cultures.

[1] = system: murine HSCs (Lineage- Sca1+ ckit+ CD34-Flk2- CD150+ Fgd5 ZsGr+); test: Ex vivo culture of 20 murine HSCs for 7 or 14 days (imaging, FACS of phenotypic HSCs); assay type: cell-based; settings: 7 or 14 days ex vivo, versus DMSO
Experimental: Images taken at 4× magnification.
FIGS. 9A-9B show the expansion of phenotypic murine HSCs for 14 days ex vivo. 20 murine HSCs (Lineage− Sca1+ ckit+ CD34−Flk2−CD150+Fgd5⋅ZsGr+) were cultured in the presence of DMSO, LSD1 inhibitor IV (LS), Tgfbeta inhibitor RepSox (RS), and the combination of both (C2) for 14 days. This method supports maintenance and expansion of ZsGr+ HSCs. […] FIG. 9B depicts the number of Lineage− Sca1+ ckit+ CD34−Flk2−CD150+Fgd5⋅ZsGr+ HSCs in each condition after 14 days of ex vivo culture.
as §1, with “FIG. 10B: Frequency of ZsGr+ cells remaining following 4.5 days of ex vivo culture. FIG. 10C: Number of ZsGr+ (Green) and ZsGr− (Black) cells within 4.5 day cultures (See also FIGS. 11A-13F and 28A-32B).” left out

[2] = system: murine HSCs (lineage-, ckit+, Sca1+, CD150+, CD48-, Fgd5ZsGr+); test: Culture of 40 murine HSCs for 12 days with compound cocktail plus RG108 and/or UNC0638, flow cytometry; assay type: cell-based; settings: cytokines plus cocktail incl. trichostatin A, plus either or both RG108 and UNC0638
Experimental: 40 murine HSCs (lineage−, ckit+, Sca1+, CD150+, CD48−, Fgd5ZsGr+) were cultured for 12 days in the presence of cytokines (SCF, TPO, and IL12) and a cocktail of compounds (Lithium chloride, nicotinamide, N-acetylcysteine, ascorbic acid, A83-01, and SB203580, trichostatin A) plus either or both DNA methyltransferase inhibitor (RG108) and G9a inhibitor (UNC0638). Flow cytometry plots of Fgd5+Lineage− cells from the indicated culture conditions are shown.
A series of experiments was conducted in order to determine the relative contribution of compounds that modulate particular pathways to the expansion of hematopoietic stem cells. FIGS. 21A-21B show the contribution of each compound/pathway in ability to maintain and expand phenotypic HSCs during ex vivo culture. […] 200 cord blood HSCs were cultured for 12 days in serum free media supplemented with cytokines (SCF, TPO, FLT3L, IL3) in the presence of the indicated chemical combinations (Tgfbeta inhibitor (A, A83-01), HDAC inhibitor (TSA, Trichostatin A), and LSD1 inhibitor (TC, Tranylcypromine)) or additionally supplemented with p38 inhibitor (p38i, SB203580) and analyzed by flow cytometry. FIG. 35A: Immunophenotype of the cells post-culturing, and FIG. 35B: quantification of immunophenotypic HSCs (Lineage− CD34+ CD45RA−CD38− CD90+CD49F+) cultured in the indicated conditions.

[3] = system: human mobilized peripheral blood CD34+ cells; test: Culture of 3000 CD34+ enriched mobilized peripheral blood cells for 7 days with chemicals or combinations, flow cytometry; assay type: cell-based; settings: combinations with A83-01, Tranylcypromine, SB203580
Experimental: 3000 CD34+ enriched mobilized peripheral blood cells were cultured for 7 days in serum free media supplemented with cytokines (SCF, TPO, FLT3L, IL3) in the presence of the indicated chemical combinations (Tgfbeta inhibitor (A, A83-01), pan-HDAC inhibitor (TSA, Trichostatin A), LSD1 inhibitor (TC, Tranylcypromine), p38 inhibitor (p38i, SB203580), HDAC1/2 inhibitor (Rom, Romidepsin)) and analyzed by flow cytometry. FIG. 41A depicts the immunophenotype of the cells, FIG. 41B depicts the percentage of indicated populations, and FIG. 41C depicts quantification of immunophenotypic HSCs (Lineage− CD34+ CD45RA−CD38− CD90+CD49F+) 7 days post-culturing in the indicated conditions.
3000 CD34+ enriched mobilized peripheral blood cells were cultured for 7 days in serum free media supplemented with cytokines (SCF, TPO, FLT3L, IL3) in the presence of the indicated chemical combinations (Tgfbeta inhibitor (A, A83-01), pan-HDAC inhibitor (TSA, Trichostatin A), LSD1 inhibitor (TC, Tranylcypromine), p38 inhibitor (p38i, SB203580), HDAC1/2 inhibitor (Rom, Romidepsin)) and analyzed by flow cytometry. FIG. 41A: immunophenotype of the cells, FIG. 41B: percentage of indicated populations, and FIG. 41C: quantification of immunophenotypic HSCs (Lineage− CD34+ CD45RA− CD38− CD90+CD49F+) 7 days post-culturing in the indicated conditions.

p38 MAPK = settings: as described in U.S. Pat. No. 6,602,896; cited from earlier work
[4] = system: human CD34+ peripheral blood and cord blood hematopoietic stem cells; settings: as described in the cited literature; cited from earlier work
[5] = system: murine HSCs (lineage-, ckit+, Sca1+, CD150+, CD48-, Fgd5ZsGr+); test: Culture of 100 murine HSCs with compound cocktail plus VPA or TSA, day 7 flow cytometry; assay type: cell-based; settings: cytokines plus cocktail (Lithium chloride, nicotinamide, N-acetylcysteine, ascorbic acid, A83-01, SB203580)
Experimental: 100 murine HSCs (lineage−, ckit+, Sca1+, CD150+, CD48−, Fgd5ZsGr+) were cultured in the presence of cytokines only (SCF, TPO, and IL12) in the absence of compounds (Standard), or additionally supplemented with a cocktail of compounds (Lithium chloride, nicotinamide, N-acetylcysteine, ascorbic acid, A83-01, and SB203580) plus either valproic acid (VPA) or trichostatin A (TSA), which are structurally distinct HDAC inhibitors. FIG. 22A depicts day 7 flow cytometric analysis and FIG. 22B depicts the proportion of Fgd5−ZsGreen+ Sca1+ cells for each replicate.
In addition to inhibitors of histone demethylation and TGFβ signaling, histone deacetylase inhibitors also promote the expansion, enrichment, and maintenance of hematopoietic stem cells ex vivo. […] 3000 CD34+ enriched mobilized peripheral blood cells were cultured for 7 days in serum free media supplemented with cytokines (SCF, TPO, FLT3L, IL3) in the presence of the indicated chemical combinations (Tgfbeta inhibitor (A, A83-01), pan-HDAC inhibitor (TSA, Trichostatin A), LSD1 inhibitor (TC, Tranylcypromine), p38 inhibitor (p38i, SB203580), HDAC1/2 inhibitor (Rom, Romidepsin)) and analyzed by flow cytometry. […]

CN1CCN(C(=O)CN[C@@H]2C[C@H]2c2ccc(OCc3ccccc3)cc2)CC1 [LS]
maintenance and expansion of ZsGr+ HSCs (ZsGr+ murine HSCs): supports maintenance and expansion of ZsGr+ murine HSCs | frequency of GEMM colonies (human cord blood HSCs): elevated frequency of most primitive GEMM colonies | appearance of cultures (images at 4x magnification) [1]: more homogenous and less differentiated

O=C(O)[C@H](Cc1c[nH]c2ccccc12)N1C(=O)c2ccccc2C1=O [RG108, N-Phthalyl-L-tryptophan]
heterogeneity of Fgd5 ZsGr+ cells with respect to CD48 and Sca1 expression [2]: reduces heterogeneity

Cc1cccc(-c2n[nH]cc2-c2ccc3ncccc3n2)n1 [RS]
maintenance and expansion of ZsGr+ HSCs (ZsGr+ murine HSCs): supports maintenance and expansion of ZsGr+ murine HSCs | frequency of GEMM colonies (human cord blood HSCs): elevated frequency of most primitive GEMM colonies

C/C=C1\NC(=O)[C@H]2CSSCC/C=C/[C@H](CC(=O)N[C@H](C(C)C)C(=O)N2)OC(=O)[C@H](C(C)C)NC1=O [Romidepsin]
replacement of pan HDAC inhibitor in chemical combination for maintenance/expansion of human HSCs [3]: can replace the pan HDAC inhibitor Trichostatin A for efficient ex vivo maintenance/expansion of human HSCs

Oc1ccc(-c2nc(-c3ccc(F)cc3)c(-c3ccncc3)[nH]2)cc1 [SB202190, 4(4-Fluorophenyl)-2-(4-hydroxyphenyl)-5-(4-pyridyl) 1H-imidazole]
selectivity among p38 MAPK isoforms (p38 MAPK): selectively antagonize p38 MAPK α- and β-isoforms without disrupting the enzymatic activity of the γ- or δ-isoforms

CC(C)n1cnc2c(NCCc3ccc(O)cc3)nc(-c3csc4ccccc34)nc21 [SR1]
expansion and self-renewal of human CD34+ hematopoietic stem cells [4]: promotes expansion and self-renewal of human CD34+ peripheral blood and cord blood hematopoietic stem cells

COc1cc2c(NC3CCN(C(C)C)CC3)nc(C3CCCCC3)nc2cc1OCCCN1CCCC1 [UNC0638]
heterogeneity of Fgd5 ZsGr+ cells with respect to CD48 and Sca1 expression [2]: reduces heterogeneity

CC(/C=C/C(=O)NO)=C\[C@@H](C)C(=O)c1ccc(N(C)C)cc1 [trichostatin A]
maintenance of immunophenotypic HSCs by structurally distinct HDAC inhibitors [5]: function equivalently to maintain immunophenotypic HSCs

CCCC(CCC)C(=O)O [valproic acid]
maintenance of immunophenotypic HSCs by structurally distinct HDAC inhibitors [5]: function equivalently to maintain immunophenotypic HSCs
